From the Kinase Knowledgebase extract (Sharma et al. 2016)

biological target: MAPK14 (human) (UniProt Q16539); assay: Assessment of MAPK14 Kinase Activity
Sequence (Q16539 whole entry, looked up): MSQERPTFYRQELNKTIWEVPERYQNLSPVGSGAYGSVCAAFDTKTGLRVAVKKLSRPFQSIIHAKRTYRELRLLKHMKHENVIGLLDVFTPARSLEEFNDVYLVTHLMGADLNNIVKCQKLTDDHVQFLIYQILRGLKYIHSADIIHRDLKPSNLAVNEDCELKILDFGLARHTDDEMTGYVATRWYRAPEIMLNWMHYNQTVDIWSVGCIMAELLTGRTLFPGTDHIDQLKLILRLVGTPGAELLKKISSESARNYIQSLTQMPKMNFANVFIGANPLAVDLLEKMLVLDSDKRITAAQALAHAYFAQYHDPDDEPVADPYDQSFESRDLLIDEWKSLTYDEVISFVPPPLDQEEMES

Row | SMILES | IC50 [nM]
1 | COCCOCC#Cc1cc(NC(=O)Nc2sc(C(C)(C)C)cc2C(=O)N2CCNC(=O)C2(C)C)ccc1C | < 100
2 | Cc1ccc(NC(=O)Nc2cn(C(C)(C)C)nc2C(=O)N2CCN(C3CCN(C)C3)C(=O)C2(C)C)cc1-c1cccnc1 (stereo not drawn) | 100 to 1000
3 | COc1ccc(-c2cc(NC(=O)Nc3cc(C(C)(C)C)sc3C(=O)N3CCN(CCO)C(=O)C3(C)C)ccc2C)cn1 | < 100
4 | Cc1ccc(NC(=O)Nc2oc(C(C)(C)C)cc2C(=O)N2CCNC(=O)C2(C)C)cc1-c1ccncc1 | < 100
5 | Cc1ccc(NC(=O)Nc2cc(C(C)(C)C)sc2C(=O)N2CCN(C)C(=O)C2(C)C)cc1-c1ccc(CN2CCOCC2)nc1 | < 100
6 | CCNC(=O)c1ccc(-c2cc(NC(=O)Nc3cc(C(C)(C)C)oc3C(=O)N3CCN(C)C(=O)C3(C)C)ccc2C)cn1 | < 100
7 | CC(C)(C)c1cc(C(=O)N2CCNC(=O)C2(C)C)c(NC(=O)Nc2cccc(-c3cccnc3)c2)s1 | < 100
8 | Cc1ccc(NC(=O)Nc2sc(C(C)(C)C)cc2C(=O)N2CCN(C)C(=O)C2(C)C)cc1-c1ccc(C(N)=O)nc1 | < 100
9 | Cc1ccc(NC(=O)Nc2cn(C(C)(C)C)nc2C(=O)N2CCN(C)C(=O)C2(C)C)cc1-c1ccc(CN2CCOCC2)nc1 | < 100
10 | Cc1ccc(NC(=O)Nc2sc(C(C)(C)C)cc2C(=O)N2CCN(C)C(=O)C2(C)C)cc1-c1ccc(CN2CCOCC2)cn1 | < 100
11 | CCc1ccc(-c2cc(NC(=O)Nc3cn(C4(C)CCCC4)nc3C(=O)N3CCNC(=O)C3(C)C)ccc2C)cn1 | < 100
12 | COc1ccc(NC(=O)Nc2sc(C(C)(C)C)cc2C(=O)N2CCNC(=O)C2(C)C)cc1-c1ccncc1 | < 100
13 | CCC(C)(C)c1cc(C(=O)N2CCN(C)C(=O)C2(C)C)c(NC(=O)Nc2ccc(C)c(-c3ccc(CN4CCOCC4)nc3)c2)s1 | < 100
14 | Cc1ccc(NC(=O)Nc2sc(C(C)(C)C)cc2C(=O)N2CCNC(=O)C2(C)C)cc1-c1ccc(OCCCN2CCN(C)CC2)nc1 | < 100
15 | Cc1ccc(NC(=O)Nc2sc(C(C)(C)C)cc2C(=O)N2CCNC(=O)C2(C)C)cc1C#Cc1ccccn1 | < 100
16 | CCc1ccc(-c2cc(NC(=O)Nc3sc(C(C)(C)C)cc3C(=O)N3CCNC(=O)C3(C)C)ccc2C)nc1 | < 100
17 | Cc1ccc(-c2cc(NC(=O)Nc3sc(C(C)(C)C)cc3C(=O)N3CCN(C)C(=O)C3(C)C)ccc2C)cn1 | < 100
18 | Cc1ccc(NC(=O)Nc2cc(C(C)(C)C)sc2C(=O)N2CCN(C(C)C)C(=O)C2(C)C)cc1-c1ccc(CN2CCOCC2)nc1 | < 100
19 | COc1ccc(-c2cc(NC(=O)Nc3sc(C(C)(C)C)cc3C(=O)N3CCNC(=O)C3(C)C)c(F)cc2C)cn1 | < 100

Row | SMILES | IC50 [nM]
20 | Cc1ccc(NC(=O)Nc2sc(C(C)(C)C)cc2C(=O)N2CCNC(=O)C2(C)C)cc1-c1ccc(C(C)C)nc1 | < 100
21 | CCNC(=O)c1ccc(-c2cc(NC(=O)Nc3cc(C(C)(C)C)sc3C(=O)N3CCNC(=O)C3(C)C)ccc2C)cn1 | < 100
22 | Cc1ccc(NC(=O)Nc2sc(C(C)(C)C)cc2C(=O)N2CCNC(=O)C2(C)C)cc1-c1ccc(NCC(O)CO)nc1 (stereo not drawn) | < 100
23 | CCNC(=O)c1ccc(-c2cc(NC(=O)Nc3cc(C(C)(C)C)sc3C(=O)N3CCN(C)C(=O)C3(C)C)ccc2C)cn1 | < 100
24 | Cc1ccc(NC(=O)Nc2cc(C(C)(C)C)sc2C(=O)N2CCN(C)C(=O)C2)cc1-c1ccc(CN2CCOCC2)nc1 | < 100
25 | CCc1ccc(-c2cc(NC(=O)Nc3cn(C(C)(C)C)nc3C(=O)N3CCN(C)C(=O)C3(C)C)cc(F)c2C)cn1 | < 100
26 | COc1ccc(-c2cc(NC(=O)Nc3sc(C(C)(C)C)cc3C(=O)N3CCC(=O)N(C)CC3)ccc2C)cn1 | < 100
27 | Cc1ccc(NC(=O)Nc2sc(C(C)(C)C)cc2C(=O)N2CCNC(=O)C2(C)C)cc1-c1ccc(OCCN2CCCCC2)nc1 | < 100
28 | CCc1ccc(-c2cc(NC(=O)Nc3sc(C(C)(C)C)cc3C(=O)N3CCNC(=O)C3(C)C)ccc2C)cn1 | < 100
29 | Cc1ccc(NC(=O)Nc2cc(C(C)(C)C)sc2C(=O)N2CCNC(=O)C2(C)C)cc1-c1ccc(CN2CCOCC2)nc1 | < 100
30 | CCOc1ccc(-c2cc(NC(=O)Nc3cn(C(C)(C)C)nc3C(=O)N3CCN(C)C(=O)C3(C)C)ccc2C)cn1 | < 100
31 | Cc1ccc(-c2cc(NC(=O)Nc3sc(C(C)(C)C)cc3C(=O)N3CCNC(=O)C3(C)C)ccc2C)nn1 | < 100
32 | Cc1ccc(NC(=O)Nc2sc(C(C)(C)C)cc2C(=O)N2CCNC(=O)C2(C)C)cc1-c1ccc(CN)nc1 | < 100
33 | Cc1ccc(NC(=O)Nc2cc(C(C)(C)C)sc2C(=O)N2CCNC(=O)C2(C)C)cc1-c1ccc(N2CCOCC2)cn1 | < 100
34 | CN(C)CCOc1ccc(-c2cccc(NC(=O)Nc3sc(C(C)(C)C)cc3C(=O)N3CCNC(=O)C3(C)C)c2)cn1 | < 100
35 | Cc1ccc(NC(=O)Nc2sc(C(C)(C)C)cc2C(=O)N2CCNC(=O)C2(C)C)cc1C#CCOCCN1CCOCC1 | < 100
36 | CCc1ccc(-c2cc(NC(=O)Nc3sc(C(C)(C)C)cc3C(=O)N3CCN(C)C(=O)C3(C)C)ccc2C)cn1 | < 100
37 | Cc1ccc(NC(=O)Nc2sc(C(C)(C)C)cc2C(=O)N2CCN(CCN(C)C)C(=O)C2(C)C)cc1-c1cccnc1 | < 100
38 | Cc1ccc(-c2ccc(N3CCOCC3)cn2)cc1NC(=O)Nc1cc(C(C)(C)C)sc1C(=O)N1CCNC(=O)C1(C)C | < 100
